In series [1] the test system is mESC and MEF. Briefly: Secondary screening by flow cytometry (mESC and MEF incubated separately). The series is classed as cell-based, mouse. The conditions noted are these: 2 μM, 1 hour. The protocol: To evaluate the application of chalcone derivatives as ESC-selective probes, 320 chalcone compounds were screened in mouse ESC (mESC) and mouse embryonic fibroblast (MEF) feeder cells prepared on 384-well cell culture microplates. From the image-based primary screening, 8 compounds that stained mESC consistently with stronger intensity than MEF were selected. For the secondary screening, mESC and MEF were incubated separately with each of the hit compounds and subsequently analyzed using flow cytometry.
(§1) MEFs and mESCs were cultured in 60 mm culture dish for 1 hour in the presence of 2 μM of hit compounds, including CDg4. The cells were harvested by trypsin treatment, washed with PBS and resuspended in PBS. The fluorescence intensity of the cells was measured on Flow Cytometry (BD™ LSR II) with FITC ([…], emission at 560 nm). The dot plot images for each cell type were overlaid using FlowJo7 (Three Star Inc.) For FACS MEF and mESC were cultured in a same dish and the sample was prepared as described above for flow cytometry. The cells gated into SSClow CDgreen4 bright and SSChigh CDgreen4 dim regions were collected using a FACS machine (BD FACSAria™).

The subject of series [2] is mixture of mESC and MEF. Briefly: Enrichment of mESC from mESC/MEF mixture using FACS and fluorescence microscopy. The class given is cell-based, mouse. The conditions noted are these: for mESC enrichment / sorting from mixed-cell population: FACS, mESC and MEF in same dish; for selective staining of ESC versus MEF feeder: live mESC cultured on MEF feeder, fluorescence microscopy. The protocol:
To confirm the secondary screening data, a mixture of mESC and MEF was incubated with […]. The cell mixture was sorted using Fluorescence-Activated Cell Sorting (FACS).
as §1

Series [3] concerns induced pluripotent stem cell (iPSC). Briefly: Staining and FACS isolation of induced pluripotent stem cells. The class given is cell-based, mouse. The conditions noted are these: iPSC from MEF of Oct4-GFP transgenic mice. How it is done: The iPS cells were maintained in mESC culture medium which was changed every day until designated time point. 4 dpi iPS was incubated with 2 μM of CDg4 for 1 hr at 37° C. The cells were harvested by trypsin treatment, washed with PBS and resuspended in PBS. The cells gated into SSClow CDg4 bright (R2) and SSChigh CDg4 dim (R1) regions were collected using a FACS machine (BD FACSAria™).
CDg4 was applied to induced pluripotent stem cell (iPSC) which was generated from MEF of transgenic mice that express GFP under the control of Oct4 (also known as Pou5f1) promoter. […] FACS was used to isolate early iPS cell population stained by CDg4. (FIG. 2). Isolation of the early iPS cell population will facilitate gene profiling using DNA microarray of this cell population. While gene expression profiling for mixture populations or using cell lines are reported, with lack of direct marker or probes for early iPS, it was not possible to study with purified early iPS.
The retroviral packaging cell, PlatE cell, was maintained in DMEM containing 10% FBS, 100 U/ml penicillin, 100 μg/ml streptomycin, 10 μg/ml blasticidin 5 and 1 μg/ml puromycin. […]

Series [4] is described as follows: Fluorescence property measurement. The class given is physicochemical. The protocol: All reactions were performed in oven-dried glassware under a positive pressure of nitrogen. Unless otherwise noted, starting materials and solvents were purchased from Aldrich and Acros Organics and used without further purification. Analytical TLC was carried out on Merck 60 F254 silica gel plate (0.25 mm layer thickness) and visualization was done with UV light. Column chromatography was performed on Merck 60 silica gel (230-400 mesh). NMR spectra were recorded on a Bruker Avance 300 NMR spectrometer. Chemical shifts are reported as δ in units of parts per million (ppm) and coupling constants are reported as a J value in Hertz (Hz). Mass of all the compounds was determined by LC-MS of Agilent Technologies with an electrospray ionization source. All fluorescence assays were performed with a Gemini XS fluorescence plate reader.
10 μM solutions in DMSO were prepared and the absorption and emission of library compounds was measured. FIG. 3 is a representative absorbance and fluorescence spectrum.

SMILES strings stand for the structures.

Results on one compound are retold here after US8871976B2, “Chalcone structure fluorescence dye for embryonic stem cell probe” (National University of Singapore, priority 2010, dated 2014).

`C=CC(=O)Nc1ccc(C(=O)/C=C/c2ccc(N(C)CCO)cc2)cc1` [CDg4]: in series [1], the “selectivity for mESCs (side scatter and fluorescence intensity dot plot overlay of mESC and MEF)” value is on record as “most selective for mESCs among the 8 hit compounds”. In series [2], the “mESC enrichment / sorting from mixed-cell population” value was “selective sorting and isolation from mixture of Feeder cells even up to day 5”; the “selective staining of ESC versus MEF feeder” value is “much more brightly stained by CDg4 than MEF”. Also, in series [2] (listed as CD4), the “mESC enrichment / sorting from mixed-cell population” value was “can be used for mESC enrichment from a mixed-cell population”. Besides, the “selective staining of ESC versus MEF feeder” value in series [2] (listed as CDgreen4) was “selectively stains embryonic stem cells (ESC) and iPSC in a feeder cell-based culture system”. Moreover, the “staining of iPSC colony” value in series [3] is given as “selectively stained the iPSC colony”. In series [4], this compound registered a λem of 560 nm and a λex of 430 nm.
